Measured values from ChEMBL document CHEMBL1201862, “PubChem BioAssay data set” (2004).
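Step 1: Grow cells in 96-well plates. Step 2: Expose to compound for 48 hours at 5 concentrations. Step 3: Interpolate endpoints linearly; if unreached, use highest concentration. GI50 = concentration required for 50% inhibition of growth.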 Calls of active or inactive are those of the source. No stated cut-off is given here; in the data, active = GI50 up to about 1.1 µM and inactive = higher.

Assays:
Experiment in all cases: DTP human tumour cell line panel, 48 h
[1] = system: 786-0
[2] = system: A498
[3] = system: A549
[4] = system: ACHN
[5] = system: CCRF-CEM
[6] = system: COLO 205
[7] = system: DLD-1
[8] = system: DMS-114
[9] = system: EKVX
[10] = system: HCC 2998
[11] = system: HCT-116
[12] = system: HCT-15
[13] = system: HOP-18
[14] = system: HOP-62
[15] = system: HOP-92
[16] = system: HT-29
[17] = system: IGROV-1
[18] = system: K562
[19] = system: KM-20L2
[20] = system: KM12
[21] = system: LOX IMVI
[22] = system: LXFL 529
[23] = system: M14
[24] = system: M19-MEL
[25] = system: MOLT-4
[26] = system: Malme-3M
[27] = system: NCI-H226
[28] = system: NCI-H23
[29] = system: NCI-H460
[30] = system: NCI-H522
[31] = system: OVCAR-3
[32] = system: OVCAR-4
[33] = system: OVCAR-5
[34] = system: OVCAR-8
[35] = system: RXF 393
[36] = system: SF-268
[37] = system: SF-295
[38] = system: SF-539
[39] = system: SK-MEL-28
[40] = system: SK-MEL-2
[41] = system: SK-MEL-5
[42] = system: SK-OV-3
[43] = system: SN12C
[44] = system: SNB-19
[45] = system: SNB-75
[46] = system: SNB-78
[47] = system: SW-620
[48] = system: TK-10
[49] = system: U-251
[50] = system: UACC-257
[51] = system: UACC-62
[52] = system: UO-31
[53] = system: XF498
[54] = system: CAKI-1
[55] = system: DMS-273
[56] = system: HL-60
[57] = system: RPMI-8226
[58] = system: SR

## CC1(C)CCCC2(C)C3C(O)CC2(C)C(O)C31 (stereo not given)
[1]
  GI50: < 0.01 µM (active)
[2]
  GI50: > 100 µM (inactive)
[3]
  GI50: > 100 µM (inactive)
[4]
  GI50: > 100 µM (inactive)
[5]
  GI50: > 100 µM (inactive)
[6]
  GI50: > 100 µM (inactive)
[7]
  GI50: > 100 µM (inactive)
[8]
  GI50: > 100 µM (inactive)
[9]
  GI50: > 100 µM (inactive)
[10]
  GI50: > 100 µM (inactive)
[11]
  GI50: > 100 µM (inactive)
[12]
  GI50: > 100 µM
[13]
  GI50: > 100 µM (inactive)
[14]
  GI50: > 100 µM (inactive)
[15]
  GI50: > 10 µM (inactive)
[16]
  GI50: > 100 µM (inactive)
[17]
  GI50: > 100 µM (inactive)
[18]
  GI50: > 100 µM (inactive)
[19]
  GI50: > 100 µM (inactive)
[20]
  GI50: > 100 µM (inactive)
[21]
  GI50: > 100 µM (inactive)
[22]
  GI50: > 100 µM (inactive)
[23]
  GI50: > 100 µM (inactive)
[24]
  GI50: > 100 µM (inactive)
[25]
  GI50: > 100 µM (inactive)
[26]
  GI50: > 100 µM (inactive)
[27]
  GI50: > 100 µM (inactive)
[28]
  GI50: > 100 µM (inactive)
[29]
  GI50: > 100 µM (inactive)
[30]
  GI50: > 100 µM (inactive)
[31]
  GI50: > 100 µM (inactive)
[32]
  GI50: > 100 µM (inactive)
[33]
  GI50: > 100 µM (inactive)
[34]
  GI50: > 100 µM (inactive)
[35]
  GI50: > 100 µM (inactive)
[36]
  GI50: > 100 µM (inactive)
[37]
  GI50: > 100 µM (inactive)
[38]
  GI50: > 100 µM (inactive)
[39]
  GI50: > 100 µM (inactive)
[40]
  GI50: > 100 µM (inactive)
[41]
  GI50: > 100 µM (inactive)
[42]
  GI50: > 100 µM (inactive)
[43]
  GI50: > 100 µM (inactive)
[44]
  GI50: > 100 µM (inactive)
[45]
  GI50: > 100 µM (inactive)
[46]
  GI50: > 100 µM (inactive)
[47]
  GI50: > 100 µM (inactive)
[48]
  GI50: > 100 µM (inactive)
[49]
  GI50: > 100 µM (inactive)
[50]
  GI50: > 100 µM (inactive)
[51]
  GI50: > 100 µM (inactive)
[52]
  GI50: > 100 µM (inactive)
[53]
  GI50: > 100 µM (inactive)

## Cc1ccc(S(=O)(=O)OCC/C(=C\[Si](C)(C)C)c2ccccc2)cc1
[1]
  GI50: > 100 µM (inactive)
[2]
  GI50: > 100 µM (inactive)
[3]
  GI50: > 100 µM (inactive)
[4]
  GI50: > 100 µM (inactive)
[54]
  GI50: > 100 µM (inactive)
[5]
  GI50: > 100 µM (inactive)
[6]
  GI50: > 100 µM (inactive)
[7]
  GI50: > 100 µM (inactive)
[8]
  GI50: > 100 µM (inactive)
[55]
  GI50: > 100 µM (inactive)
[9]
  GI50: > 100 µM (inactive)
[10]
  GI50: > 100 µM (inactive)
[11]
  GI50: > 100 µM (inactive)
[12]
  GI50: > 100 µM
[56]
  GI50: 91 µM (inactive)
[13]
  GI50: > 100 µM (inactive)
[14]
  GI50: > 100 µM (inactive)
[15]
  GI50: > 100 µM (inactive)
[16]
  GI50: > 100 µM (inactive)
[17]
  GI50: > 100 µM (inactive)
[18]
  GI50: > 100 µM (inactive)
[19]
  GI50: > 100 µM (inactive)
[20]
  GI50: > 100 µM (inactive)
[21]
  GI50: > 100 µM (inactive)
[22]
  GI50: > 100 µM (inactive)
[23]
  GI50: > 100 µM (inactive)
[24]
  GI50: > 100 µM (inactive)
[25]
  GI50: > 100 µM (inactive)
[26]
  GI50: > 100 µM (inactive)
[27]
  GI50: > 100 µM (inactive)
[28]
  GI50: > 100 µM (inactive)
[29]
  GI50: > 100 µM (inactive)
[30]
  GI50: > 100 µM (inactive)
[31]
  GI50: > 100 µM (inactive)
[32]
  GI50: > 100 µM (inactive)
[33]
  GI50: > 100 µM (inactive)
[34]
  GI50: > 100 µM (inactive)
[57]
  GI50: > 100 µM (inactive)
[35]
  GI50: > 100 µM (inactive)
[36]
  GI50: > 100 µM (inactive)
[37]
  GI50: > 100 µM (inactive)
[38]
  GI50: > 100 µM (inactive)
[39]
  GI50: > 100 µM (inactive)
[40]
  GI50: > 100 µM (inactive)
[41]
  GI50: > 100 µM (inactive)
[42]
  GI50: > 100 µM (inactive)
[43]
  GI50: > 100 µM (inactive)
[44]
  GI50: > 100 µM (inactive)
[45]
  GI50: > 100 µM (inactive)
[58]
  GI50: 24 µM (inactive)
[47]
  GI50: > 100 µM (inactive)
[48]
  GI50: > 100 µM (inactive)
[49]
  GI50: > 100 µM (inactive)
[50]
  GI50: > 100 µM (inactive)
[51]
  GI50: > 100 µM (inactive)
[52]
  GI50: > 100 µM (inactive)
[53]
  GI50: > 100 µM (inactive)
